Results on seven compounds are retold here after ChEMBL document CHEMBL5346863, “Discovery of substituted benzyloxy-benzylamine inhibitors of acetyltransferase Eis and their anti-mycobacterial activity” (Eur J Med Chem, 2022).

pIC50, pKi: −log10 of the molar value. ≈ marks a conversion by molar mass, not a printed value. Calls of active or inactive are those of the source.

For series [1], the target named is T1, N-acetyltransferase Eis (Mycobacterium tuberculosis (strain ATCC 25618 / H37Rv), UniProt P9WFK7).
T1 sequence (P9WFK7 whole entry): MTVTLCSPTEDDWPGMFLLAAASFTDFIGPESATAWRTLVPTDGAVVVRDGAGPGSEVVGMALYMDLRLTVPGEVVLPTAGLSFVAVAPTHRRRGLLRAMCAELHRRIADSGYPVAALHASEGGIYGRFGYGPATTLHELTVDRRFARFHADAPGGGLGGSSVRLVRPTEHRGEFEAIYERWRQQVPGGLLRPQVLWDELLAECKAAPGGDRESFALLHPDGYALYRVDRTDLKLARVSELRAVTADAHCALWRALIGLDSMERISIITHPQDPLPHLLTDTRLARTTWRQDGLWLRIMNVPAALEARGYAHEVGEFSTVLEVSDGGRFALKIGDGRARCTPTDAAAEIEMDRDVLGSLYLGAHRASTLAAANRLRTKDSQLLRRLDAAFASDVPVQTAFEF
Put plainly: Inhibition of wild-type Mycobacterium tuberculosis Eis expressed in Escherichia coli BL21(DE3) cells incubated for 5 mins by Ellman's method. For orientation: In Ellman's method for cholinesterases, released thiocholine reacts with DTNB.

The test system of series [2] is Mycobacterium tuberculosis. Put plainly: Antibacterial activity against Mycobacterium tuberculosis H37Rv assessed as MIC of kanamycin A at 100 uM incubated for 24 hrs followed by kanamycin A addition measured after 6 days by alamarblue dye based assay. It counts as functional. The note with it: time 7.0 day. On the technique in general: Alamar Blue is a resazurin reagent that responds to reducing activity.

The test system of series [3] is Mycobacterium tuberculosis. Put plainly: Antibacterial activity against Mycobacterium tuberculosis H37Rv assessed as MIC of kanamycin A at 95.9 uM incubated for 24 hrs followed by kanamycin A addition measured after 6 days by alamarblue dye based assay. The series is classed as functional, organism-based. The note with it: time 7.0 day.
Series [4] has as its system Mycobacterium tuberculosis. Put plainly: Antibacterial activity against Mycobacterium tuberculosis K204 assessed as MIC of kanamycin A at 95.9 uM incubated for 24 hrs followed by kanamycin A addition measured after 6 days by alamarblue dye based assay. The series is classed as functional, organism-based. The following applies: time 7.0 day.
Series [5] relates to Mycobacterium tuberculosis. Nature of the series: Antibacterial activity against Mycobacterium tuberculosis mc2 6230 assessed as bacterial growth inhibition incubated 2 to 3 weeks by resazurin dye based assay. The series is classed as functional. The following applies: time 2-3 weeks.
For series [6], the system named is Mycobacteroides abscessus. Nature of the series: Antibacterial activity against Mycobacterium abscessus ATCC 19977 assessed as bacterial growth inhibition incubated for 2 to 3 weeks by resazurin dye based assay. The note with it: time 2-3 weeks. The series is classed as functional.
Another series has as its system Mycobacterium avium. Nature of the series: Antibacterial activity against Mycobacterium avium ATCC 25291 assessed as bacterial growth inhibition incubated for 2 to 3 weeks by resazurin dye based assay. The note with it: time 2-3 weeks. The series is classed as functional.
Series [7] concerns Mycobacterium intracellulare. Nature of the series: Antibacterial activity against Mycobacterium intracellulare ATCC 13950 assessed as bacterial growth inhibition incubated for 2 to 3 weeks by resazurin dye based assay. The series is classed as functional. The note with it: time 2-3 weeks.
The test system of series [8] is Mycobacterium parascrofulaceum. Put plainly: Antibacterial activity against Mycobacterium parascrofulaceum ATCC BAA-614 assessed as bacterial growth inhibition incubated for 2 to 3 weeks by resazurin dye based assay. The note with it: time 2-3 weeks. It counts as functional.
The test system of the next series is A549. Put plainly: Cytotoxicity against human A549 cells upto 12.5 uM incubated for 24 hrs by resazurin dye based cell viability assay. It counts as toxicity. The note with it: a549, 24 h.
Another series relates to HEK293. Nature of the series: Cytotoxicity against HEK293 cells upto 12.5 uM incubated for 24 hrs by resazurin dye based cell viability assay. The series is classed as toxicity. The note with it: human, hek293, 24 h.
Another series deals with J774.1. Nature of the series: Cytotoxicity against mouse J774.1 cells upto 12.5 uM incubated for 24 hrs by resazurin dye based cell viability assay. It counts as toxicity. The note with it: j774.1, 24 h.
The test system of series [9] is Mycobacterium tuberculosis. Nature of the series: Antibacterial activity against Mycobacterium tuberculosis H37Ra assessed as bacterial growth inhibition incubated 2 to 3 weeks by resazurin dye based assay. It counts as functional. The following applies: time 2-3 weeks.
For series [10], the system named is Mycobacterium tuberculosis. Nature of the series: Antibacterial activity against Mycobacterium tuberculosis H37Rv assessed as MIC of kanamycin A at 55.8 uM incubated for 24 hrs followed by kanamycin A addition measured after 6 days by alamarblue dye based assay. It counts as functional. The following applies: 168 h, time 7 day.
The test system of series [11] is Mycobacterium tuberculosis. Put plainly: Antibacterial activity against Mycobacterium tuberculosis K204 assessed as MIC of kanamycin A at 55.8 uM incubated for 24 hrs followed by kanamycin A addition measured after 6 days by alamarblue dye based assay. The series is classed as functional. The following applies: K204, 168 h, time 7 day.
Series [12] relates to Mycobacterium tuberculosis. Nature of the series: Antibacterial activity against Mycobacterium tuberculosis mc2 6230 assessed as MIC of kanamycin A at 25 uM incubated for 24 hrs followed by kanamycin A addition measured after 6 days by alamarblue dye based assay. The series is classed as functional. The note with it: mc2 6230, 168 h, time 7 day.
Series [13] deals with Mycobacterium tuberculosis. Put plainly: Antibacterial activity against Mycobacterium tuberculosis mc2 6230 K204 assessed as MIC of kanamycin A at 25 uM incubated for 24 hrs followed by kanamycin A addition measured after 6 days by alamarblue dye based assay. It counts as functional. The note with it: time 7 day.
The target in series [14] is T1, N-acetyltransferase Eis. Nature of the series: Binding affinity to wild-type Mycobacterium tuberculosis Eis expressed in Escherichia coli BL21(DE3) cells assessed as inhibition constant incubated for 5 mins by Ellman's method based Michaelis-Menten analysis.
Series [15] concerns Mycobacterium tuberculosis. Put plainly: Antibacterial activity against Mycobacterium tuberculosis H37Rv assessed as MIC of kanamycin A at 6.3 uM incubated for 24 hrs followed by kanamycin A addition measured after 6 days by alamarblue dye based assay. The note with it: 168 h, time 7 day. The series is classed as functional.
Series [16] deals with Mycolicibacterium smegmatis. Nature of the series: Antibacterial activity against Mycobacterium smegmatis mc2 122 assessed as bacterial growth inhibition incubated for 2 to 3 weeks by resazurin dye based assay. The series is classed as functional. The following applies: time 2-3 weeks.
Series [17] concerns Mycobacterium tuberculosis. Nature of the series: Antibacterial activity against Mycobacterium tuberculosis H37Rv assessed as MIC of kanamycin A at 8.2 uM incubated for 24 hrs followed by kanamycin A addition measured after 6 days by alamarblue dye based assay. The series is classed as functional. The note with it: 168 h, time 7 day.
Series [18] concerns Mycobacterium tuberculosis. Nature of the series: Antibacterial activity against Mycobacterium tuberculosis H37Rv assessed as MIC of kanamycin A at 54.8 uM incubated for 24 hrs followed by kanamycin A addition measured after 6 days by alamarblue dye based assay. It counts as functional, organism-based. The note with it: time 7.0 day.
Series [19] relates to Mycobacterium tuberculosis. Nature of the series: Antibacterial activity against Mycobacterium tuberculosis K204 assessed as MIC of kanamycin A at 54.8 uM incubated for 24 hrs followed by kanamycin A addition measured after 6 days by alamarblue dye based assay. The following applies: time 7.0 day. The series is classed as functional, organism-based.
Series [20] deals with Mycobacterium tuberculosis. Nature of the series: Antibacterial activity against Mycobacterium tuberculosis H37Rv assessed as MIC of kanamycin A at 7.9 uM incubated for 24 hrs followed by kanamycin A addition measured after 6 days by alamarblue dye based assay. The series is classed as functional. The following applies: 168 h, time 7 day.

`Brc1ccc(COc2ccccc2CNCc2cccnc2)cc1`: the negative logarithm of the IC50 (pIC50) (in general, the IC50 on a negative log10 scale, so that one unit is a factor of ten) on N-acetyltransferase Eis [1] was approximately 5.10. Further, the outcome in series [2], in series [3] and in series [4] was Active. Besides, the MIC – broadly, the smallest concentration in the dilution series that meets the test's criterion for growth inhibition – was 100 µM (≈ 38.3 µg/mL) in series [5]; more than 62.5 µM in series [6]; more than 62.5 µM in the series with Mycobacterium avium; more than 62.5 µM in [7]; more than 62.5 µM in [8]. In addition, the Activity result in the series with A549, with HEK293 and in the series on J774.1 was “Non-Toxic” throughout.
On to `Clc1ccc(COc2ccccc2CNCc2ccncc2)cc1`, for which the pIC50 against N-acetyltransferase Eis [1] was 5.85. Moreover, the MIC is 31.3 µM (≈ 10.6 µg/mL) in series [9]; less than 1.25 µg/mL in [10]; more than 10 µg/mL in [11]; 50 µM (≈ 16.9 µg/mL) in [5]; less than 1.25 µM in series [12]; more than 10 µM in series [13]. In addition, the MIC is 31.3 µM (≈ 10.6 µg/mL) in series [6], more than 62.5 µM with Mycobacterium avium, 31.3 µM (≈ 10.6 µg/mL) in series [7] and more than 62.5 µM in series [8]. Besides, the pKi (commonly −log10 of the Ki, conventionally taken in molar units) on N-acetyltransferase Eis [14] was 5.98.
`Clc1ccc(COc2cccc(CNCc3cccnc3)c2)cc1`: on N-acetyltransferase Eis [1], the pIC50 is 5.60. Moreover, the MIC in series [9] is 15.6 µM (≈ 5.29 µg/mL); in series [15] it was 2.5 µg/mL; in series [5], 50 µM (≈ 16.9 µg/mL); in series [16], 31.3 µM (≈ 10.6 µg/mL); in the series with Mycobacterium avium, more than 62.5 µM; in series [7], 31.3 µM (≈ 10.6 µg/mL).
At N-acetyltransferase Eis [1], `Brc1cccc(COc2ccc(CNCc3ccccc3)cc2)c1` had a pIC50 of 5.62. The MIC in series [9] was 3.9 µM (≈ 1.49 µg/mL); in series [5], 50 µM (≈ 19.1 µg/mL); in series [12], less than 1.25 µM; in [13] (Mycobacterium tuberculosis, mc2 6230 K204, 168 h, read-out: MIC) it was not above 1.25 µM; in series [16], 2 µM (≈ 0.765 µg/mL); in series [6] it was 31.3 µM (≈ 12 µg/mL). The MIC in the series on Mycobacterium avium is 31.3 µM (≈ 12 µg/mL); in [7], 3.9 µM (≈ 1.49 µg/mL); in series [8] it was 2 µM (≈ 0.765 µg/mL).
`Fc1ccc(COc2ccccc2CNCc2cccnc2)cc1` gave a negative-log IC50 (pIC50) at N-acetyltransferase Eis [1] of 5.00. Besides, the MIC is 125 µM (≈ 40.3 µg/mL) in series [9]; 2.5 µg/mL in series [17]; more than 100 µM in [5]; more than 62.5 µM in series [16]; more than 62.5 µM in [6]; more than 62.5 µM with Mycobacterium avium. Further, the MIC in series [7] and in series [8] was more than 62.5 µM in each case.
In turn, `Clc1ccc(COc2cccc(CNCc3ccncc3)c2)cc1` showed a pIC50 against N-acetyltransferase Eis [1] of approximately 4.70. Besides, the minimum inhibitory concentration (MIC) in series [9] is 31.3 µM (≈ 10.6 µg/mL); in series [5], 50 µM (≈ 16.9 µg/mL); in series [6] it was more than 62.5 µM; in the series with Mycobacterium avium, more than 62.5 µM; in series [7], 31.3 µM (≈ 10.6 µg/mL). Besides, the result in series [2], in [18] and in [19] was Active.
Take `Clc1cccc(COc2ccccc2CNCc2cccnc2)c1`: the pIC50 at N-acetyltransferase Eis [1] was 5.38. In addition, the MIC in [20] was 7.9 µg/mL; in series [5], 100 µM (≈ 33.9 µg/mL); in series [6], more than 62.5 µM; in the series with Mycobacterium avium it was more than 62.5 µM; in series [7] it was more than 62.5 µM; in series [8] it was more than 62.5 µM.
